Assay results from US7855165B2, “Herbicide composition for paddy field” (Bayer Cropscience AG, priority 2007, dated 2010).
Read-outs that look alike come from different tables or passages of the source.

Tests used:
[1] = Test Example 1: effect of the herbicide composition against paddy field weeds (pot test, green house); format: in vivo, annual broad-leaves; settings: 504 h, read-out: Herbicidal effect (%) BBBBB
Text: In a green house, seeds or tubers of Monochoria vaginalis Presl, annual broad-leaves (Lindernia procumbens Philcox, Rotala indica Koehne, Elatine triandra Schk, Ammannia multiflora Roxb., etc.), Cyperus serotinus Rottboel, and Sagittaria pygmaea Miq were inoculated to paddy field soil filled in a 500 cm^2 pot and brought to a submerged condition of about 2-3 cm. […] After the treatment, the submerged condition of 3 cm was maintained and the herbicidal effect was studied 3 weeks after the treatment. The herbicidal effect was evaluated as 100% in case of complete death and 0% in case of no effect.
(§1) In the tables, MOOVP represents Monochoria vaginalis Presl, BBBBB represents annual broad-leaves, CYPSE represents Cyperus serotinus Rottboel and SAGPY represents Sagittaria pygmaea Miq.

[2] = tested on: Cyperus serotinus Rottboel; test: as above; format: in vivo; settings: Cyperus serotinus, 504 h, read-out: Herbicidal effect (%) CYPSE
Text: (§2) • Component (a) (a-1): compound No. 1 (ref: the aforementioned Table A) • (a-2): compound No. 3 (same as above) • (a-3): compound No. 11 (same as above) • Component (b) the aforementioned (b-1)-(b-15) • Component (c) the aforementioned (c-1)-(c-3) <Preparation of Test Agents> • Carrier: Acetone 5 parts by weight • Surfactant: Benzyloxy polyglycol ether 1 part by weight The above-mentioned carrier and surfactant and 1 part by weight of active compounds (component (a) and component (b) or component (c)) are mixed and the obtained formulations are diluted with water to prepare the test agents of the prescribed chemicals amount (preparations).
(§3) In a green house, seeds or tubers of Monochoria vaginalis Presl, annual broad-leaves (Lindernia procumbens Philcox, Rotala indica Koehne, Elatine triandra Schk, Ammannia multiflora Roxb., etc.), Cyperus serotinus Rottboel, and Sagittaria pygmaea Miq were inoculated to paddy field soil filled in a 500 cm^2 pot and brought to a submerged condition of about 2-3 cm. At 1.5-2 leafstage of each weed prescribed diluted solution of preparation of each active compound and each herbicide in the following table was applied on water surface each singly or simultaneously. After the treatment, the submerged condition of 3 cm was maintained and the herbicidal effect was studied 3 weeks after the treatment. The herbicidal effect was evaluated as 100% in case of complete death and 0% in case of no effect.
as §1

Sagittaria pygmaea Miq = test: as above; format: in vivo; settings: Sagittaria pygmaea, 504 h, read-out: Herbicidal effect (%) SAGPY
Text: as §2, §3, §1

[3] = tested on: Monochoria vaginalis Presl; test: as above; format: in vivo; settings: Pontederia vaginalis, 504 h, read-out: Herbicidal effect (%) MOOVP
Text: as §2, §3, §1

[4] = 300 g/ha single, 3 weeks after treatment
[5] = 600 g/ha single, 3 weeks after treatment
[6] = 1.5 g/ha single, 3 weeks after treatment
[7] = 3 g/ha single, 3 weeks after treatment
[8] = 20 g/ha single, 3 weeks after treatment
[9] = 40 g/ha single, 3 weeks after treatment
[10] = 125 g/ha single, 3 weeks after treatment
[11] = 250 g/ha single, 3 weeks after treatment
[12] = 200 g/ha single, 3 weeks after treatment
[13] = 400 g/ha single, 3 weeks after treatment
[14] = 50 g/ha single, 3 weeks after treatment
[15] = 100 g/ha single, 3 weeks after treatment
[16] = 75 g/ha single, 3 weeks after treatment
[17] = 150 g/ha single, 3 weeks after treatment

Structure (SMILES): CN(C(=O)COc1nc2ccccc2s1)c1ccccc1 [(b-9), mefenacet]
- pest or weed control at 300 g/ha [1, 4]: 30%
- pest or weed control at 600 g/ha [1, 5]: 40%
- pest or weed control at 300 g/ha [2, 4]: 30%
- pest or weed control at 600 g/ha [2, 5]: 30%
- pest or weed control at 300 g/ha (Sagittaria pygmaea Miq; [4]): 10%
- pest or weed control at 600 g/ha (Sagittaria pygmaea Miq; [5]): 10%
- pest or weed control at 300 g/ha [3, 4]: 65%
- pest or weed control at 600 g/ha [3, 5]: 80%

Structure (SMILES): CCN(CC)C(=O)n1cnc(S(=O)(=O)c2c(C)cc(C)cc2C)n1 [(b-3), cafenstrole]
- pest or weed control at 75 g/ha [1]: 40%
- pest or weed control at 150 g/ha [1]: 50%
- pest or weed control at 75 g/ha [2]: 0%
- pest or weed control at 150 g/ha [2]: 70%
- pest or weed control at 75 g/ha (Sagittaria pygmaea Miq): 10%
- pest or weed control at 150 g/ha (Sagittaria pygmaea Miq): 10%
- pest or weed control at 75 g/ha [3]: 50%
- pest or weed control at 150 g/ha [3]: 60%

Structure (SMILES): CCOc1ccccc1OS(=O)(=O)NC(=O)Nc1nc(OC)cc(OC)n1 [(b-13), ethoxysulfuron]
- pest or weed control at 1.5 g/ha [1, 6]: 40%
- pest or weed control at 3 g/ha [1, 7]: 70%
- pest or weed control at 1.5 g/ha [2, 6]: 0%
- pest or weed control at 3 g/ha [2, 7]: 0%
- pest or weed control at 1.5 g/ha (Sagittaria pygmaea Miq; [6]): 65%
- pest or weed control at 3 g/ha (Sagittaria pygmaea Miq; [7]): 65%
- pest or weed control at 1.5 g/ha [3, 6]: 65%
- pest or weed control at 3 g/ha [3, 7]: 70%

Structure (SMILES): CC1=C(c2ccccc2)C(=O)N(C(C)(C)c2cc(Cl)cc(Cl)c2)CO1 [(b-10), oxaziclomefone]
- pest or weed control at 20 g/ha [1]: 40%
- pest or weed control at 40 g/ha [1]: 40%
- pest or weed control at 20 g/ha [2, 8]: 0%
- pest or weed control at 40 g/ha [2, 9]: 0%
- pest or weed control at 20 g/ha (Sagittaria pygmaea Miq; [8]): 0%
- pest or weed control at 40 g/ha (Sagittaria pygmaea Miq; [9]): 10%
- pest or weed control at 20 g/ha [3, 8]: 10%
- pest or weed control at 40 g/ha [3, 9]: 20%

Structure (SMILES): CCCOCCN(C(=O)CCl)c1c(CC)cccc1CC [(b-2), pretilachlor]
- pest or weed control at 125 g/ha [1, 10]: 10%
- pest or weed control at 250 g/ha [1, 11]: 10%
- pest or weed control at 125 g/ha [2, 10]: 0%
- pest or weed control at 250 g/ha [2, 11]: 0%
- pest or weed control at 125 g/ha (Sagittaria pygmaea Miq; [10]): 0%
- pest or weed control at 250 g/ha (Sagittaria pygmaea Miq; [11]): 10%
- pest or weed control at 125 g/ha [3, 10]: 10%
- pest or weed control at 250 g/ha [3, 11]: 20%

Structure (SMILES): COP(=S)(OC)SCC(=O)N(c1ccc(Cl)cc1)C(C)(C)C [(b-1), anilofos]
- pest or weed control at 100 g/ha [1]: 0%
- pest or weed control at 200 g/ha [1]: 0%
- pest or weed control at 100 g/ha [2]: 0%
- pest or weed control at 200 g/ha [2]: 0%
- pest or weed control at 100 g/ha (Sagittaria pygmaea Miq): 10%
- pest or weed control at 200 g/ha (Sagittaria pygmaea Miq): 10%
- pest or weed control at 100 g/ha [3]: 10%
- pest or weed control at 200 g/ha [3]: 10%

Structure (SMILES): CC(C)(NC(=O)C(Br)C(C)(C)C)c1ccccc1 (centres unmarked) [(b-14), bromobutide]
- pest or weed control at 200 g/ha [1]: 20%
- pest or weed control at 400 g/ha [1]: 30%
- pest or weed control at 200 g/ha [2, 12]: 40%
- pest or weed control at 400 g/ha [2, 13]: 60%
- pest or weed control at 200 g/ha (Sagittaria pygmaea Miq; [12]): 10%
- pest or weed control at 400 g/ha (Sagittaria pygmaea Miq; [13]): 10%
- pest or weed control at 200 g/ha [3, 12]: 30%
- pest or weed control at 400 g/ha [3, 13]: 95%

Structure (SMILES): COc1cnc(OC)n2nc(NS(=O)(=O)c3c(OCC(F)F)cccc3C(F)(F)F)nc12 [(b-5), penoxsulam]
- pest or weed control at 50 g/ha [1, 14]: 50%
- pest or weed control at 100 g/ha [1, 15]: 90%
- pest or weed control at 50 g/ha [2, 14]: 70%
- pest or weed control at 100 g/ha [2, 15]: 70%
- pest or weed control at 50 g/ha (Sagittaria pygmaea Miq; [14]): 65%
- pest or weed control at 100 g/ha (Sagittaria pygmaea Miq; [15]): 85%
- pest or weed control at 50 g/ha [3, 14]: 75%
- pest or weed control at 100 g/ha [3, 15]: 90%

Structure (SMILES): CS(=O)(=O)c1ccc(C(=O)C2C(=O)CCCC2=O)c(Cl)c1COCC1CCCO1 (centres unmarked) [(b-15), 2-{2-chloro-4-mesyl-3-[(tetrahydrofuran-2-ylmethoxy)-methyl]-benzoyl}-cyclohexan-1,3-dione]
- pest or weed control at 75 g/ha [1, 16]: 50%
- pest or weed control at 150 g/ha [1, 17]: 65%
- pest or weed control at 75 g/ha [2, 16]: 80%
- pest or weed control at 150 g/ha [2, 17]: 85%
- pest or weed control at 75 g/ha (Sagittaria pygmaea Miq; [16]): 80%
- pest or weed control at 150 g/ha (Sagittaria pygmaea Miq; [17]): 80%
- pest or weed control at 75 g/ha [3, 16]: 85%
- pest or weed control at 150 g/ha [3, 17]: 95%

Structure (SMILES): CCN(C(=O)n1nnn(-c2ccccc2Cl)c1=O)C1CCCCC1 [(b-8), fentrazamide]
- pest or weed control at 75 g/ha [1, 16]: 40%
- pest or weed control at 150 g/ha [1, 17]: 70%
- pest or weed control at 75 g/ha [2, 16]: 30%
- pest or weed control at 150 g/ha [2, 17]: 30%
- pest or weed control at 75 g/ha (Sagittaria pygmaea Miq; [16]): 30%
- pest or weed control at 150 g/ha (Sagittaria pygmaea Miq; [17]): 30%
- pest or weed control at 75 g/ha [3, 16]: 40%
- pest or weed control at 150 g/ha [3, 17]: 60%
